Data set [1] concerns mPTP. Briefly: mPTP activity (Ca2+ retention) assay in isolated rat liver mitochondria. The format is biochemical. The conditions noted are these: isolated rat liver mitochondria. A digest of the protocol:
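Freshly isolated female Sprague Dawley rat liver mitochondria were energised with succinate and rotenone in pH 7.4 buffer with Fluo5N, then pre-incubated 10 min at RT with compound (30 μM to 1 nM final) before a 75 μM CaCl2 bolus. The IC50 used 10-min fluorescence, normalised to DMSO and 5 μM cyclosporin A.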

The nature of data set [2]: Hepatocyte clearance assay, rat. The data set is classed as in vitro ADME. The conditions noted are these: cryopreserved primary rat hepatocytes, average value from two experiments, read-out: Rat heps Clint. A digest of the protocol: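 Cryopreserved rat or human hepatocytes, 0.5×10^6 viable cells/mL in L-15 medium, incubated with compound at 37 °C; samples to 120 min, duplicate. Parent loss by LC/MS/MS; t½ = 0.693/k from ln-linear regression, converted to CLint in μL/min/1×10^6 cells.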

A short description of data set [3]: PBS and FaSSIF solubility. The data set is classed as physicochemical. The conditions noted are these: kinetic from dmso stock. In a few lines:
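Solubility was measured from 10 mM DMSO stocks diluted into FaSSIF or PBS pH 7.4, in duplicate, then shaken at 1100 rpm for 2 hr at 25 °C. Filtrates were quantified by LC-MS/MS against an internal standard and a known-concentration standard.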

[4] abbreviates: average value from multiple experiments (n ≥ 2).
The mark [5] stands for this setting: aqueous buffer, PBS pH 7.4, 2 hr at 25° C., read-out: Solubility PBS (pH 7.4).
Setting [6] is: fasted state simulated intestinal fluid (FaSSIF), fassif, Fasted state simulated intestinal fluid, 2 hr at 25° C., read-out: Solubility FaSSIF.

Each structure is given as a SMILES string. Values after ≈ are worked out from the molar mass of the structure shown. Read-outs that look alike come from different tables or passages of the source. Marks after values point to notes of the source that are not given here.

Take `Cc1c(F)cccc1NC(=O)/C=C/c1ccc2cn[nH]c2c1` [Comparative Example 1, (E)-N-(2-methyl-3-fluorophenyl)-3-(1H-indazol-6-yl)acrylamide, reference compound]: the “mPTP Rat liver pIC50” value in data set [1] (average value from a larger number of experiments) is recorded as 7.8***; in data set [1] (setting [4]), 8.0. The hepatocyte CLint at 1 µM in data set [2] is 89 µL/min/1e6 cells. Moreover, the solubility – broadly, the dissolved amount per volume that the medium holds – at 2 h was 0.9 µM (≈ 0.266 µg/mL) in data set [3] (setting [5]) and 4 µM (≈ 1.18 µg/mL) in data set [3] (setting [6]).
Regarding `Cc1c(F)cccc1NC(=O)/C=C/c1ccc2c(c1F)NC(=O)C2` [Example 5, (E)-N-(3-fluoro-2-methylphenyl)-3-(7-fluoro-2-oxoindolin-6-yl)acrylamide], in data set [1] (setting [4]), the “mPTP Rat liver pIC50” value worked out at 6.7. In data set [2], the hepatocyte CLint at 1 µM is 27 µL/min/1e6 cells. The solubility at 2 h in data set [3] (setting [5]) is 6.78 µM (≈ 2.23 µg/mL); in data set [3] (setting [6]) it was 66 µM (≈ 21.7 µg/mL).
Taken in the same sequence, the figures for `Cc1c(F)cccc1NC(=O)/C=C/c1ccc2oc(=O)[nH]c2c1` [Example 6, (E)-N-(3-fluoro-2-methylphenyl)-3-(2-oxo-2,3-dihydrobenzo[d]oxazol-5-yl)acrylamide] were 6.8, 53.3 µL/min/1e6 cells, 3.71 µM (≈ 1.16 µg/mL) and 16 µM (≈ 5 µg/mL).
Taken in the same sequence, the figures for `Cc1c(F)cccc1NC(=O)/C=C/c1ccc2c(c1)[nH]c(=O)n2C` [Example 7, (E)-N-(3-fluoro-2-methylphenyl)-3-(1-methyl-2-oxo-2,3-dihydro-1H-benzo[d]imidazol-5-yl)acrylamide] were 6.8, 27 µL/min/1e6 cells, 1.4 µM (≈ 0.455 µg/mL) and 22.5 µM (≈ 7.32 µg/mL).
With `Cc1c(F)cccc1NC(=O)/C=C/c1ccc2c(c1)NC(=O)C2C` (centres unmarked) [Example 8, (E)-N-(3-fluoro-2-methylphenyl)-3-(3-methyl-2-oxoindolin-6-yl)acrylamide], the “mPTP Rat liver pIC50” value in data set [1] (setting [4]) is reported as 5.9. In data set [2], the hepatocyte CLint at 1 µM was 46 µL/min/1e6 cells. Also, the solubility at 2 h in data set [3] (setting [5]) is 33.6 µM (≈ 10.9 µg/mL); in data set [3] (setting [6]), 220 µM (≈ 71.3 µg/mL).
Taken in the same sequence, the figures for `Cc1c(F)cccc1NC(=O)/C=C/c1ccc2c(c1)NC(=O)C2` [Example 10, (E)-N-(3-fluoro-2-methylphenyl)-3-(2-oxoindolin-6-yl)acrylamide] were 6.7, 21.1 µL/min/1e6 cells, 4.7 µM (≈ 1.46 µg/mL) and 74 µM (≈ 23 µg/mL).
Taken in the same sequence, the figures for `Cc1cccc(C)c1NC(=O)/C=C/c1ccc2c(c1)NC(=O)C2` [Example 19, (E)-N-(2,6-dimethylphenyl)-3-(2-oxoindolin-6-yl)acrylamide] were 6.2, 9.1 µL/min/1e6 cells, 134 µM (≈ 41.1 µg/mL) and 196 µM (≈ 60.2 µg/mL).
As to `CCn1c(=O)[nH]c2cc(/C=C/C(=O)Nc3cccc(F)c3C)ccc21` [Example 22, (E)-3-(1-ethyl-2-oxo-2,3-dihydro-1H-benzo[d]imidazol-5-yl)-N-(3-fluoro-2-methylphenyl)acrylamide], the “mPTP Rat liver pIC50” value in data set [1] (setting [4]) came to 6.6. Moreover, the hepatocyte CLint at 1 µM in data set [2] came out at 26.1 µL/min/1e6 cells. In addition, the solubility at 2 h in data set [3] (setting [5]) is 0.4 µM (≈ 0.136 µg/mL).
For `Cc1c(F)cccc1NC(=O)/C=C/c1ccc2c(c1)[nH]c(=O)n2C1CC1` [Example 23, (E)-3-(1-cyclopropyl-2-oxo-2,3-dihydro-1H-benzo[d]imidazol-5-yl)-N-(3-fluoro-2-methylphenyl)acrylamide], the “mPTP Rat liver pIC50” value in data set [1] (setting [4]) was 6.6. Further, in data set [2], the hepatocyte CLint at 1 µM worked out at 35.7 µL/min/1e6 cells. Moreover, the solubility at 2 h in data set [3] (setting [5]) amounted to 6.13 µM (≈ 2.15 µg/mL).
Taken in the same sequence, the figures for `Cc1n[nH]c2cc(/C=C/C(=O)NC3CCc4ccccc43)ccc12` (centres unmarked) [Example 25, (E)-N-(2,3-dihydro-1H-inden-1-yl)-3-(3-methyl-1H-indazol-6-yl)acrylamide] were 6.9, 36.3 µL/min/1e6 cells and 3.69 µM (≈ 1.17 µg/mL).
Regarding `Cc1ccc(F)c(C)c1NC(=O)/C=C/c1ccc2c(c1)[nH]c(=O)n2C` [Example 30, (E)-N-(3-fluoro-2,6-dimethylphenyl)-3-(1-methyl-2-oxo-2,3-dihydro-1H-benzo[d]imidazol-5-yl)acrylamide], the “mPTP Rat liver pIC50” value in data set [1] (setting [4]) was found to be 7.4. In data set [2], the hepatocyte CLint at 1 µM is 12.1 µL/min/1e6 cells. In addition, the solubility at 2 h was 5.73 µM (≈ 1.94 µg/mL) in data set [3] (setting [5]) and 135 µM (≈ 46 µg/mL) in data set [3] (setting [6]).
Regarding `Cc1c(F)cccc1NC(=O)/C(F)=C/c1ccc2c(c1)NC(=O)C2` [Example 47, (Z)-2-fluoro-N-(3-fluoro-2-methylphenyl)-3-(2-oxoindolin-6-yl)acrylamide], the “mPTP Rat liver pIC50” value in data set [1] (setting [4]) was found to be 5.9. In addition, the solubility at 2 h in data set [3] (setting [5]) worked out at 0.5 µM (≈ 0.164 µg/mL).
As to `CO[C@H]1Cc2ccccc2[C@@H]1NC(=O)/C=C/c1ccc2c(C)n[nH]c2c1` [Example 54, (E)-N-((1S,2S)-2-methoxy-2,3-dihydro-1H-inden-1-yl)-3-(3-methyl-1H-indazol-6-yl)acrylamide], in data set [1] (setting [4]), the “mPTP Rat liver pIC50” value amounted to 7.6. Further, the hepatocyte CLint at 1 µM in data set [2] came to 39.4 µL/min/1e6 cells. Also, the solubility at 2 h in data set [3] (setting [6]) was 22 µM (≈ 7.63 µg/mL).
Taken in the same sequence, the figures for `CO[C@H]1Cc2ccccc2[C@@H]1NC(=O)/C=C/c1ccc2c(F)n[nH]c2c1` [Example 73, (E)-3-(3-fluoro-1H-indazol-6-yl)-N-((1S,2S)-2-methoxy-2,3-dihydro-1H-Inden-1-yl)acrylamide] were 8.1, 73.5 µL/min/1e6 cells and 37.5 µM (≈ 13.2 µg/mL).

The record behind these values is US20250179028A1, “ACRYLAMIDE COMPOUNDS” (NRG THERAPEUTICS LTD, priority 2022, published 2025).
